Common to all, as to test: NCI-60 cell line screen, 48 h
The test system of test [1] is NCI-H23 lung.
Test [2] relates to HCT-116 colon.
For test [3], the system named is HL-60(TB) leukemia.
The subject of test [4] is NCI-H226 lung.
Test [5] has as its system RXF 393 renal.
For test [6], the system named is UACC-62 melanoma.
Test [7] has as its system LOX IMVI melanoma.
Test [8] has as its system SNB-75 CNS.
Test [9] deals with T-47D breast.
Test [10] concerns NCI/ADR-RES ovarian.

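Where inhibition never reached the appropriate level, the endpoint shown equals the highest concentration tested. Otherwise, values were interpolated linearly from a five-concentration, 48-hour dose response in 96-well plates. GI50 marks 50% less growth. Definition used: TGI = concentration required for complete inhibition of growth.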

`CC(=O)NC(C=O)C(O[C@H](C)C(=O)NC(C)C(=O)NC(CCC(N)=O)C(=O)OCc1ccccc1)C(O)C(O)COC(=O)CCNc1c2ccccc2nc2cccc([N+](=O)[O-])c12` (some centres undefined): the TGI came to 9.45 µM in test [1]; 2.69 µM in [2]; 31.8 µM in test [3]; 6.89 µM in test [4]; 12 µM in test [5]; 10.5 µM in [6]. Besides, the figures for the TGI in test [7] and in [8] were 31.3 µM and 17.8 µM, respectively.

As to `NC(=O)NC1C(C(=O)O)N(Cc2ccccc2)C(=O)N1Cc1ccccc1` (centres undefined), the TGI in [1], in test [2], in [3], in test [4], in test [6] and in test [7] was > 100 µM throughout. The TGI in test [8] is > 100 µM.

Turning to `O=C1CCCCC12CCC/C2=N\O` (centres undefined), the TGI in test [2], in [3], in [4], in test [5], in test [6] and in test [8] was > 100 µM in each case.

Turning to `O=C(NCCCl)SCCO`, the TGI in test [1], in test [2], in test [3], in test [4], in test [5] and in [6] was > 100 µM each time. Further, in test [8], the TGI was > 100 µM.

Turning to `O=C1OC(=O)C2C3C=CC(C12)C1C2C=CC2C31` (centres undefined), the TGI in test [1], in [2], in test [3], in test [4], in [5] and in test [7] was > 100 µM throughout.

In the case of `CC([O-])=C1C(=O)c2ccccc2C1=O.CC([O-])=C1C(=O)c2ccccc2C1=O.CC[O-].CC[O-].[Ti+4]`, the GI50 in test [1], in test [3], in test [4], in test [6], in test [7] and in test [8] was > 100 µM throughout. The TGI in test [1], in [3], in test [4], in test [6], in test [7] and in test [8] was > 100 µM throughout.

As to `O=c1[nH]cnc2c(COCCO)c[nH]c12`, the TGI in test [1], in [3], in test [4], in test [5], in test [6] and in test [7] was > 100 µM throughout. Also, the TGI in [8] is > 100 µM.

As for `N#Cc1cccc(C=NC23CC4CC(CC(C4)C2)C3)c1`, the TGI in [1] was > 100 µM; in test [2] it was > 100 µM; in test [3], 42.2 µM; in [4], > 100 µM; in test [5], > 100 µM; in test [6], > 100 µM. In test [7], the TGI was > 100 µM.

Take `CC1SC2(CCCCC2)N(NC(=O)c2[nH]c3ccc(Br)cc3c2-c2ccccc2)C1=O` (centres undefined): the GI50 in [1] was 30.7 µM; in [2], 10.2 µM; in [9] it was 20.5 µM; in [4] it was 40.7 µM; in test [5], 13.7 µM; in test [6] it was 9.66 µM. Moreover, the results for the GI50 in test [7] and in [8] were 92.7 µM and 22.6 µM, respectively. In addition, the TGI in test [1] was > 100 µM; in [2] it was > 100 µM; in test [9], > 100 µM; in test [4], > 100 µM; in test [5] it was 69.2 µM; in test [6], > 100 µM. The TGI is > 100 µM in [7] and 90 µM in [8].

On to `COCCOCCOCCOc1cccc2c1C(=O)c1cccc(OCCOCCOCCOC)c1C2=O`, for which the TGI in test [1], in test [2], in test [3], in [5], in test [6] and in test [7] was > 100 µM throughout. For the same molecule, the TGI in [8] is > 100 µM.

`COC(=O)Cc1cc(=O)[nH]c2c1C(=O)CCC2`: the TGI in test [1], in [3], in test [4] and in [5] was > 100 µM throughout.

For the molecule `Cc1cccc2c3c(sc12)C(c1ccc(F)cc1)C(C#N)=C(N)O3` (centres undefined), the GI50 in test [10] is 0.0446 µM; in test [1] it was 0.127 µM; in [2], 0.052 µM; in [3], 0.0389 µM; in test [4] it was 0.239 µM; in [5] it was 0.0271 µM. In addition, the GI50 in test [6] is 0.0433 µM; in test [7], 0.0608 µM; in test [8], 0.0236 µM. Also, the TGI in [10] worked out at 4.14 µM; in test [1], 12 µM; in [2], 3.43 µM; in [3] it was 0.731 µM; in test [4], 3.9 µM; in test [5], 0.0825 µM. Besides, the TGI in [6] was 11.7 µM; in test [7], 5.2 µM; in test [8], 0.0936 µM.

Take `Cc1ccc(S(=O)(=O)N/N=C/C(C)C)cc1`: the TGI in [1], in [2], in [3], in [5], in test [6] and in [7] was > 100 µM each time. In [8], the TGI is > 100 µM.

With `CCCCCCCCCCCc1c(O)c(=O)c2c(oc3c(=O)c(CCCCCCCCCCC)c(O)c(=O)c3n2-c2ccc(N(C)C)cc2)c1=O`, the TGI is 47.1 µM in test [1]; 36.6 µM in test [2]; 90.4 µM in [3]; 36.3 µM in test [4]; 44.4 µM in test [5]; 34.3 µM in test [6]. Also, the figures for the TGI in [7] and in test [8] were 50.7 µM and 62.4 µM, respectively.

In the case of `CC1OC(CC(=O)O)CC2=C1C(=O)c1c(O)cccc1C2=O` (centres undefined), the TGI in [1] came to 1.51 µM; in test [2] it was 0.243 µM; in test [3], 0.0582 µM; in [9], 4.4 µM; in test [4], 3.13 µM; in [5], 0.103 µM. The TGI in [6] is 0.268 µM; in test [7], 0.111 µM; in test [8], 2.86 µM.

These data come from PubChem BioAssay (NCI).
